For orientation: IC90 means the point of the concentration-response curve where the effect stands at 90%. Usually inhibition stands for how much of the control response was suppressed. Read a high inhibition as a strong effect.

For experiment [1], the target named is T1, Histone deacetylase HD2 (Zea mays) (UniProt Q94F81).
T1 sequence (whole entry): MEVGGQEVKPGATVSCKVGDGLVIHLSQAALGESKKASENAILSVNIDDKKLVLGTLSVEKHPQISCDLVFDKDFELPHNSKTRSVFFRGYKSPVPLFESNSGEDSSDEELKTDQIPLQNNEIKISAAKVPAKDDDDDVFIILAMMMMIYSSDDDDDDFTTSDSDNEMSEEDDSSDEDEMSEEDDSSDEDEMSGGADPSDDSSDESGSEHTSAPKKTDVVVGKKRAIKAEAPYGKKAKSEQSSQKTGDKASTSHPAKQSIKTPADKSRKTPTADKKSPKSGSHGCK

In experiment [2] the target is T1, Histone deacetylase HD2 (Zea mays). The experiment is described as follows: Inhibitory concentration against deacetylase HD2 enzyme of maize at 30 uM.

For the compound `CC(/C=C/C(=O)NO)=C\[C@@H](C)C(=O)c1ccc(N(C)C)cc1`, the concentration for an effect of 90% (IC90) in experiment [1] came to 100 nM. This counts as sub-micromolar. `CN(C)c1ccc(C(=O)NCCCCCC(=O)NO)cc1`: in experiment [2], the inhibition was found to be 94%.

`COC(=O)[C@H](Cc1ccccc1)NC(=O)CCCCCCC(=O)NO` showed an inhibition in experiment [2] of 76%. Same read-out and setting: in the case of `O=C(CCCCCCC(=O)N[C@@H](Cc1ccccc1)C(=O)O)NO` it was 82%.

These data come from ChEMBL document CHEMBL1130464, “Analogues of trichosatin a and trapoxin B as histone deacetylase inhibitors” (Bioorg Med Chem Lett, 1997).
